Where two headings read alike, the source gives them in different places.
SMILES: CN1CCCC1c1cccnc1 (stereo not shown) [nicotine]
- factor of enhancement of transdermal delivery as compared with the control (3 hour permeation period, 3500 Hz, pulse duration 5 μs, 19 kV, 100% duty cycle (setting 9500)): approximately 33

SMILES: Cn1c(=O)c2c(ncn2C)n(C)c1=O [caffeine]
- factor of enhancement of transdermal delivery as compared with the control (human, 4 h, 10 mg/mL, pH 7.4): approximately 7

SMILES: O=C(O)Cc1ccccc1Nc1c(Cl)cccc1Cl [diclofenac sodium]
- factor of enhancement of transdermal delivery (human, 4 h, 10 mg/mL, pH 7.4): approximately 2
- factor of enhancement of transdermal delivery (human, 4 h, pH 7.4): about 4

From patent publication US20160089545A1, “METHODS AND APPARATUS FOR DELIVERY OF MOLECULES ACROSS LAYERS OF TISSUE” (EP Technologies LLC, priority 2013, published 2016)
